In patent publication US20060084704A1, “Methods and compositions for enhancing degradation of nuclear receptor transcription factors and uses thereof” (priority 2004, published 2006):

Target: T1, LNCaP androgen receptor (endogenous mutant AR) (Homo sapiens, UniProt P10275, T878A)
T1 construct: LNCaP cells express an endogenous mutant AR that is found in prostate cancer patients; host or cells: LNCaP
T1 sequence (P10275 1-920 T878A): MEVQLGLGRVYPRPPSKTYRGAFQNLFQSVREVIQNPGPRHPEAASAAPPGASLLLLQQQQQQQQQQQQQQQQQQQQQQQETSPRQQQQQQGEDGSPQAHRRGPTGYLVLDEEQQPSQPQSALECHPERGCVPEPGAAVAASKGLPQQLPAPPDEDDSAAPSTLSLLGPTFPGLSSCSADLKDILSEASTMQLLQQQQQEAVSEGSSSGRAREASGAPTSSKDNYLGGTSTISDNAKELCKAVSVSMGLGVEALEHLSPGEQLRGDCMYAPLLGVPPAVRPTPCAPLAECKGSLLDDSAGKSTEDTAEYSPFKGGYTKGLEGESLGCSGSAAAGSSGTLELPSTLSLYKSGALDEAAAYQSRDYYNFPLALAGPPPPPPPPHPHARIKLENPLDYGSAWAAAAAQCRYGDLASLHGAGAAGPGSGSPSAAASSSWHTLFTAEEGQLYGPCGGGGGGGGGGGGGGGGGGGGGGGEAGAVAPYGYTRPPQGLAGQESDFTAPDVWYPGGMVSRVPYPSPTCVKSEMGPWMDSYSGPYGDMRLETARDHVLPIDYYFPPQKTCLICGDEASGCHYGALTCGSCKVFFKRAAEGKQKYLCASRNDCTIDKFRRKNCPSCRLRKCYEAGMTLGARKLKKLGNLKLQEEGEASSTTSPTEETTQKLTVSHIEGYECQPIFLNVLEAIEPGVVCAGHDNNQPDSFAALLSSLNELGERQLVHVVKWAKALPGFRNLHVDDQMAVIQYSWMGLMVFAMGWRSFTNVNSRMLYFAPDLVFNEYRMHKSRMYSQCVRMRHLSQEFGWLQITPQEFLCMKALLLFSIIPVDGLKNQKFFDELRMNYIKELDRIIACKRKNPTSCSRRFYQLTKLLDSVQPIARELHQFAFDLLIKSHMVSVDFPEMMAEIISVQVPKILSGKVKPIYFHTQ
Assay: Androgen receptor transactivation assay in LNCaP cells (MMTV-luciferase reporter)
Assay type: cell-based
Settings: DHT 1 nM, JC9 0 uM to 7.5 uM
Excerpt: Prostate cancer cells, non-prostate tumor cells, and normal cells can be used in this transient transfection assay, which measures transactivation of the androgen receptor (AR) and can be used to detect a reduction of AR activity caused by AR degradation. In the provided non-limiting example, CV-1 (green monkey kidney cells lacking an androgen receptor) and LNCaP cells (prostate cancer cells containing an endogenous mutant AR), were transfected with a plasmid carrying an androgen response element (ARE) and a reporter gene.
Both the CV-1 and LNCaP cells (obtained from ATCC, Manassas, Va.) were maintained in […] medium supplemented with penicillin (25 units/millilter), streptomycin (25 micrograms/milliliter), and 10% heat-inactivated fetal bovine serum (FBS). Cells were plated in 35-millimeter dishes at a concentration of 1-2×10^5cells/well and cultured at 37 degrees Celsius in an incubator under a 5% carbon dioxide atmosphere. […] The cells were lysed, and luciferase activity of the lysate was measured with the Dual-Luciferase Reporter Assay System (Promega, Madison, Wis.). Data were expressed as relative luciferase activity normalized to the internal luciferase positive control. […]

COc1ccc(C=CC(=O)C=C(O)C=Cc2ccc(OC)c(OC)c2)cc1OC [JC9, 5-hydroxy-1,7-bis(3,4-dimethoxyphenyl)-1,4,6-heptatrien-3-one]
LNCaP androgen receptor transactivation (relative luciferase activity): dose-dependent inhibition of LNCaP androgen receptor transactivation
